Data from US20250188110A1, “SPECIFIC SMALL MOLECULE INHIBITORS THAT BLOCK KMT9 METHYLTRANSFERASE ACTIVITY AND FUNCTION” (ALBERT-LUDWIGS-UNIVERSITÄT FREIBURG, priority 2021, published 2025).
Like-named read-outs stand apart in the source and are kept apart here.

Assays:
KMT9 [1] = target: T1, KMT9 (Homo sapiens, UniProt Q9Y5N5); assay: Microscale thermophoresis (MST) KMT9 binding
T1 sequence (Q9Y5N5 1-214): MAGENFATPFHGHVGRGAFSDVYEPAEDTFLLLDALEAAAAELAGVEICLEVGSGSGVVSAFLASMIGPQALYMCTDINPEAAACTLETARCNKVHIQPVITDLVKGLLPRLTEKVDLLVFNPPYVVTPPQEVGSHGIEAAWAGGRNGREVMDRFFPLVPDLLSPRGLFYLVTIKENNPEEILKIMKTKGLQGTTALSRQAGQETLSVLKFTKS
T1 sequence (Q9UI30 1-120 isoform Q9UI30-2 partner): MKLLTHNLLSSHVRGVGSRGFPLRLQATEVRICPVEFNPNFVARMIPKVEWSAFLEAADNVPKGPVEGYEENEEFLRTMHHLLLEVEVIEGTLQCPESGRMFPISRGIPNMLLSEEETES
In short: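 Kd from microscale thermophoresis: compound series against 20 nM His-KMT9 labelled via RED-Tris-NTA, buffer 25 mM HEPES (pH 7.5)/100 mM NaCl/1 mM DTT/0.05% Tween, 40% MST power, 100% LED. Reported as classes: A ≤10 nM, B >10–100 nM, C >100–1000 nM, D >1000 nM.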

KMT9 [2] = target: T1, KMT9; assay: KMT9 thermal shift assay (SyproOrange); type: binding
In short: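 ΔTm versus DMSO-only control is reported in bins (>20 K, 15–20 K, 10–15 K, ≤10 K), using Tm from Boltzmann sigmoidal fits of SyproOrange melt curves. KMT9 with compound in pH 8.5 BTP buffer containing MgCl2 and DTT was preincubated at 25° C, then ramped 1° C per 15 s up to 95° C.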

KMT9 [3] = target: T1, KMT9; assay: KMT9 methyltransferase inhibition assay, MTaseGlo luminescence (from entry 155); type: biochemical; settings: 100 nM KMT9, 5 μM ETF1, 1 μM SAM
In short: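 KMT9 (100 nM final) pre-incubated with inhibitor for 15 min at room temperature, then reacted with 5 μM ETF1 and 1 μM SAM for 2 h at 30° C. at 2% DMSO final. MTaseGlo luminescence read after 60 min detection; IC50 reported in four potency bins.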

[4] = His-tag labelled KMT9 20 nM, read-out: MST (Kd)
[5] = 500 µM compound, 2 μM KMT9, read-out: Thermal shift (ΔTm)
[6] = MTaseGlo procedure (entries from 155), read-out: Inhibition (IC50)
[7] = His-tag labelled KMT9 20 nM, Kd class, read-out: MST
[8] = ΔTm class, 500 uM compound, 2 μM KMT9, read-out: Thermal shift
[9] = IC50 class, MTaseGlo procedure (entries from 155 on), read-out: Inhibition

| Kd (KMT9 [1]; [4]) [nM] | ΔTm at 500 µM (KMT9 [2]; [5]) [°C] | IC50 (KMT9 [3]; [6]) [nM] | SMILES | also measured |
| --- | --- | --- | --- | --- |
|  |  |  | O[C@@H]1[C@H](O)[C@@H](C2CCNCC2)C[C@H]1n1cc(-c2ccn(Cc3ccccc3)n2)c2cnc(Cl)nc21 [Compound 522, (1R,2S,3R,5R)-3-(5-(1-benzyl-1H-pyrazol-3-yl)-2-chloro-7H-pyrrolo[2,3-d]pyrimidin-7-yl)-5-(piperidin-4-yl)cyclopentane-1,2-diol] | Kd (KMT9 [1]; microscale thermophoresis, His-tag labelled KMT9 (20 nM), read-out: MST): 100 to 1000 nM; ΔTm at 500 µM (KMT9 [2]; ΔTm, 500 µM compound, 2 μM KMT9, 5X SO, read-out: Thermal shift): 15 to 20 °C; IC50 (KMT9 [3]; from entry 155: MTaseGlo assay, read-out: Inhibition): 1000 to 10000 nM |
| 100 to 1000 | 10 to 15 | 1000 to 10000 | Nc1nc(Cl)nc2c1c(-c1nc(Cc3ccccc3)cs1)cn2[C@@H]1C[C@H](C2CCN(CC3CCCC3)CC2)[C@@H](O)[C@H]1O [Compound 523, (1R,2S,3R,5R)-3-(4-amino-5-(4-benzylthiazol-2-yl)-2-chloro-7H-pyrrolo[2,3-d]pyrimidin-7-yl)-5-(1-(cyclopentylmethyl)piperidin-4-yl)cyclopentane-1,2-diol] |  |
| 10 to 100 | 15 to 20 | 100 to 1000 | Nc1nc(Cl)nc2c1c(-c1nc(Cc3ccccc3)cs1)cn2[C@@H]1C[C@H](C2CCN(Cc3ccn[nH]3)CC2)[C@@H](O)[C@H]1O [Compound 524, (1R,2S,3R,5R)-3-[4-amino-5-(4-benzyl-1,3-thiazol-2-yl)-2-chloropyrrolo[2,3-d]pyrimidin-7-yl]-5-[1-(2H-pyrazol-3-ylmethyl)piperidin-4-yl]cyclopentane-1,2-diol] |  |
| ≤ 10 | 15 to 20 | 1000 to 10000 | Nc1nc(Cl)nc2c1c(-c1nc(Cc3ccccc3)cs1)cn2[C@@H]1C[C@H](C2CCN(Cc3ccco3)CC2)[C@@H](O)[C@H]1O [Compound 525, (1R,2S,3R,5R)-3-(4-amino-5-(4-benzylthiazol-2-yl)-2-chloro-7H-pyrrolo[2,3-d]pyrimidin-7-yl)-5-(1-(furan-2-ylmethyl)piperidin-4-yl)cyclopentane-1,2-diol] |  |
| ≤ 10 | 15 to 20 | 100 to 1000 | Nc1nc(Cl)nc2c1c(-c1nc(Cc3ccccc3)cs1)cn2[C@@H]1C[C@H](C2CCN(Cc3cccs3)CC2)[C@@H](O)[C@H]1O [Compound 526, (1R,2S,3R,5R)-3-(4-amino-5-(4-benzylthiazol-2-yl)-2-chloro-7H-pyrrolo[2,3-d]pyrimidin-7-yl)-5-(1-(thiophen-2-ylmethyl)piperidin-4-yl)cyclopentane-1,2-diol] |  |
| 10 to 100 | 10 to 15 | 1000 to 10000 | Nc1nc(Cl)nc2c1c(-c1nc(Cc3ccccc3)cs1)cn2[C@@H]1C[C@H](C2CCN(Cc3ccncc3)CC2)[C@@H](O)[C@H]1O [Compound 527, (1R,2S,3R,5R)-3-(4-amino-5-(4-benzylthiazol-2-yl)-2-chloro-7H-pyrrolo[2,3-d]pyrimidin-7-yl)-5-(1-(pyridin-4-ylmethyl)piperidin-4-yl)cyclopentane-1,2-diol] |  |
| ≤ 10 | 15 to 20 | 100 to 1000 | Nc1nc(Cl)nc2c1c(Br)cn2[C@@H]1C[C@H](CN(CCCNCCc2ccc(F)cc2)c2cn[nH]c2)[C@@H](O)[C@H]1O [Compound 538, (1R,2S,3R,5R)-3-(4-amino-5-bromo-2-chloro-7H-pyrrolo[2,3-d]pyrimidin-7-yl)-5-(((3-((4-fluorophenethyl)amino)propyl)(1H-pyrazol-4-yl)amino)methyl)cyclopentane-1,2-diol] |  |
| 10 to 100 | 15 to 20 | 100 to 1000 | CNc1nc(Cl)nc2c1ccn2[C@@H]1C[C@H](CNCCCNCCc2cccc(Oc3ccccc3)c2)[C@@H](O)[C@H]1O [Compound 555, (1R,2S,3R,5R)-3-(2-chloro-4-(methylamino)-7H-pyrrolo[2,3-d]pyrimidin-7-yl)-5-(((3-((3-phenoxyphenethyl)amino)propyl)amino)methyl)cyclopentane-1,2-diol] |  |
| 10 to 100 | > 20 | 1000 to 10000 | Nc1nc(Cl)nc2c1c(-c1ccccc1)cn2[C@@H]1C[C@H](CNCCCNCCc2cccc(Oc3ccccc3)c2)[C@@H](O)[C@H]1O [Compound 564, (1R,2S,3R,5R)-3-(4-amino-2-chloro-5-phenyl-7//pyrrolo[2,3-d]pyrimidin-7-yl)-5-(((3-((3-phenoxyphenethyl)amino)propyl)amino)methyl)cyclopentane-1,2-diol] |  |
|  |  |  | Nc1nc(Cl)nc2c1c(-c1ccccc1)cn2[C@@H]1C[C@H](CNCCCNCCc2ccc(F)cc2)[C@@H](O)[C@H]1O [Compound 566, (1R,2S,3R,5R)-3-(4-amino-2-chloro-5-phenyl-7/pyrrolo[2,3-d]pyrimidin-7-yl)-5-(( (3-((4-fluorophenethyl)amino)propyl)amino)methyl)cyclopentane-1,2-diol] | Kd (KMT9 [1]; [7]): ≤ 10 nM; ΔTm at 500 µM (KMT9 [2]; [8]): > 20 °C; IC50 (KMT9 [3]; [9]): 100 to 1000 nM |
|  |  |  | CCN(CCCNCCc1ccc(F)cc1)C[C@H]1C[C@@H](n2cc(-c3ccccc3)c3c(N)nc(Cl)nc32)[C@H](O)[C@@H]1O [Compound 568, (1R,2S,3R,5R)-3-(4-amino-2-chloro-5-phenyl-7//-pyrrolo[2,3-d]pyrimidin-7-yl)-5-((ethyl(3-((4-fluorophenethyl)amino)propyl)amino)methyl)cyclopentane-1,2-diol] | Kd (KMT9 [1]; [7]): 10 to 100 nM; ΔTm at 500 µM (KMT9 [2]; [8]): > 20 °C; IC50 (KMT9 [3]; [9]): 100 to 1000 nM |
| ≤ 10 | 15 to 20 | 100 to 1000 | CN(CCCNCCc1ccc(F)cc1)C[C@H]1C[C@@H](n2cc(-c3ccccc3)c3c(N)nc(Cl)nc32)[C@H](O)[C@@H]1O [Compound 575, (1R,2S,3R,5R)-3-(4-amino-2-chloro-5-phenyl-7H-pyrrolo[2,3-d]pyrimidin-7-yl)-5-(((3-((4-fluorophenethyl)amino)propyl)(methyl)amino)methyl)cyclopentane-1,2-diol] |  |
| 100 to 1000 | ≤ 10 | 1000 to 10000 | Nc1nc(Cl)nc2c1ccn2[C@@H]1C[C@H](c2cn[nH]c2)[C@@H](O)[C@H]1O [Compound 582, (1R,2S,3R,5R)-3-{4-Amino-2-chloropyrrolo[2,3-d]pyrimidin-7-yl}-5-(1H-pyrazol-4-yl)cyclopentane-1,2-diol] |  |
| > 1000 | ≤ 10 | > 10000 | CNc1nc(Cl)nc2c1ccn2[C@@H]1C[C@H](c2cn[nH]c2)[C@@H](O)[C@H]1O [Compound 583, (1R,2S,3R,5R)-3-[2-chloro-4-(methylamino)pyrrolo[2,3-d]pyrimidin-7-yl]-5-(1H-pyrazol-4-yl)cyclopentane-1,2-diol] |  |
| > 1000 | ≤ 10 | > 10000 | Nc1nc(Cl)nc2c1ccn2[C@@H]1C[C@H](c2cnn(CCc3ccccc3)c2)[C@@H](O)[C@H]1O [Compound 584, (1R,2S,3R,5R)-3-(4-Amino-2-chloro-7H-pyrrolo[2,3-d]pyrimidin-7-yl)-5-(1-phenethyl-1H-pyrazol-4-yl)cyclopentane-1,2-diol] |  |
|  |  |  | CN1CCC=C([C@H]2C[C@@H](n3cc(-c4nc(Cc5ccccc5)cs4)c4cnc(Cl)nc43)[C@H](O)[C@@H]2O)C1 [Compound 585, (1R,2S,3R,5R)-3-[5-(4-Benzyl-1,3-thiazol-2-yl)-2-chloropyrrolo[2,3-d]pyrimidin-7-yl]-5-(1-methyl-5,6-dihydro-2H-pyridin-3-yl)cyclopentane-1,2-diol] | Kd (KMT9 [1]; [7]): 100 to 1000 nM; ΔTm at 500 µM (KMT9 [2]; [8]): 10 to 15 °C; IC50 (KMT9 [3]; [9]): 1000 to 10000 nM |
|  |  |  | O[C@@H]1[C@H](O)[C@@H](C2=CCCN(CC3CC3)C2)C[C@H]1n1cc(-c2nc(Cc3ccccc3)cs2)c2cnc(Cl)nc21 [Compound 586, (1R,2S,3R,5R)-3-[5-(4-Benzyl-1,3-thiazol-2-yl)-2-chloropyrrolo[2,3-d]pyrimidin-7-yl]-5-[1-(cyclopropylmethyl)-5,6-dihydro-2H-pyridin-3-yl]cyclopentane-1,2-diol] | Kd (KMT9 [1]; [7]): 100 to 1000 nM; ΔTm at 500 µM (KMT9 [2]; [8]): ≤ 10 °C; IC50 (KMT9 [3]; [9]): 1000 to 10000 nM |
|  |  |  | O[C@@H]1[C@H](O)[C@@H](C2=CCCN(C3CC3)C2)C[C@H]1n1cc(-c2nc(Cc3ccccc3)cs2)c2cnc(Cl)nc21 [Compound 587, (1R,2S,3R,5R)-3-[5-(4-Benzyl-1,3-thiazol-2-yl)-2-chloropyrrolo[2,3-d]pyrimidin-7-yl]-5-(1-cyclopropyl-5,6-dihydro-2H-pyridin-3-yl)cyclopentane-1,2-diol] | Kd (KMT9 [1]; [7]): > 1000 nM; ΔTm at 500 µM (KMT9 [2]; [8]): ≤ 10 °C; IC50 (KMT9 [3]; [9]): > 10000 nM |
